In publication PMC4301629 (PLoS ONE, 2015):
One block for each compound: values may come before it.

Experiments:
α1A-AR [1] = biological target: T1, α1A-AR (Homo sapiens, UniProt P35348); assay: MAPK activation (AlphaScreen SureFire p-ERK) in α1A-AR transduced HEK-293/EBNA cells; format: cell-based; parameters: expressed in transfected cells; host or cells: HEK-293/EBNA (baculovirus transduction, NaBu induction)
T1 sequence (P35348 1-466): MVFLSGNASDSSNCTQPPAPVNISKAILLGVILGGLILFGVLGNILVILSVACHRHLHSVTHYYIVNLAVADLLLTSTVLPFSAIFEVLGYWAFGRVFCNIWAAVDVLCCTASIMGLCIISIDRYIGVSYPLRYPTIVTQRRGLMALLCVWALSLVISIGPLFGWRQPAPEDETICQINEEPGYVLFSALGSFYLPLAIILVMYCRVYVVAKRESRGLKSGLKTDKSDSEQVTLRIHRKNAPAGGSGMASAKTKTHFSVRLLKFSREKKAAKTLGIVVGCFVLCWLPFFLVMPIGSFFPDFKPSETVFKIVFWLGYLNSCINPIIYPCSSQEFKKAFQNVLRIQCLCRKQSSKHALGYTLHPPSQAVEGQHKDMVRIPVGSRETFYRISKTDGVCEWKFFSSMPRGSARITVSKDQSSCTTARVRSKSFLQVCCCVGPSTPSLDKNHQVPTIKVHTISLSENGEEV
Method: Prior to experiments, cells were transduced with baculovirus strains designed for transient expression of α1A-AR or aldehyde oxidase (negative control). This was performed by incubating cells with virus (MOI 100–150) for 3 to 4 h, followed by exchange into fresh serum free growth medium supplemented with 4 mM sodium butyrate (NaBu). Cells were grown for another 14 to 18 h and then examined for agonist-evoked responses in transient Ca^2+ release, IP accumulation or pERK activation assays. The surface receptor expression density was determined by flow cytometry via immunofluorescence labeling of an N-terminal HA epitope tag on the receptor and radioligand binding in partially purified membranes.
Graphs shown reflect either pooled or representative data (see figure legends). For concentration-response analysis, results from Ca^2+ mobilization experiments were plotted as ΔF/F0 vs. agonist concentration and fit to a sigmoidal concentration-response equation using the GraphPad Prism software package. […] For radioligand binding experiments, B max values were calculated from maximum binding using the equation B max = (SB × ([…] + [L])/[L]), where SB is the specific binding expressed as fmol per mg of membrane protein, and [L] is the ligand concentration.

α1A-AR [2] = biological target: T1, α1A-AR; assay: Ca2+ transient response (FLIPR) in α1A-AR_CHO stable cells; format: cell-based; parameters: expressed in transfected cells; details: antagonist at 100 nM
Method: Cells were resuspended in Hank’s balanced salt solution (Invitrogen) supplemented with 2 mM CaCl2, 10 mM HEPES pH 7.4, 2.5 mM probenecid, plus 1g/L each of glucose and bovine serum albumin (BSA), and seeded in poly-D-lysine coated 96-well black plates with transparent bottom (Costar) at a density of 50,000 cells/0.1 mL per well. Cells were then incubated for 1 h at 37°C with an additional 0.1 mL of buffer containing 4 μM fluo3-AM that was diluted from a stock solution containing 1 mM fluo3-AM dye in DMSO with 10% pluronic acid. After dye loading incubation, plates were washed twice with 100 μL of buffer and refilled with 100 μL of assay buffer. […] Agonist-evoked Ca^2+ mobilization responses of cell populations were monitored at room temperature simultaneously in all wells of the assay plate using the plate-imaging fluorometric reader FLIPR (MDS Analytical Technologies, Sunnyvale, CA). […] The amplitudes of Ca^2+ transient responses are reported as ΔF/F0, or fold-change in Ca^2+ dye fluorescence relative to the baseline signal ΔF/F0 = (F-F0)/F0 +1 (where ΔF is maximal fluorescence intensity observed following agonist application, F0 = baseline fluorescence, or average intensity measured over the 10 s interval prior to agonist application). […]
IP1, IP2, and IP3 levels were determined via LC-MS. […]

α1A-AR [3] = biological target: T1, α1A-AR; assay: LC-MS detection of IP1, IP2 and IP3 in α1A-AR_CHO stable cells; format: cell-based; parameters: expressed in transfected cells; details: α1A-AR CHO, Iso up to 1 mM
Method: (§1) After that, the medium was replaced with agonist solution in assay buffer (20 mM HEPES, 10 mM glucose, 1.8 mM CaCl2, 0.5 mM MgSO4, in HBSS 1X buffer, 50 mM LiCl) and cells were incubated at 37°C for 30 min. Stimulation was stopped by exchange of assay buffer with lysis buffer (100 μL 0.1N HCl/MeOH), and lysis proceeded for 30 min at 4°C. Cellular levels of inositol phosphates were determined using a Thermo LC-MS detection system following a published protocol. Chromatography was performed employing a BioBasic column AX (50 × 2.1 mm, Thermo). The mobile phase consisted of solvent A: 10 mM ammonium acetate, pH 6 in 30/70 acetonitrile/water, and solvent B: 1 mM ammonium acetate, pH 11 in 30/70 acetonitrile/water. A gradient solvent system was used starting with 0% solvent B, and analytes were eluted by increasing solvent B to 100% over 3 min. Each data point represents the average of triplicate determinations and each experiment was performed at least three times independently.
IP1, IP2, and IP3 levels were determined via LC-MS. Plots are representative of three independent experiments with each data point being the average of triplicates.

α1A-AR [4] = biological target: T1, α1A-AR; assay: Translocation of GFP-tagged β-arrestin-1/2 in HEK293 cells expressing FLAG-α1A-AR (confocal microscopy); format: cell-based; parameters: expressed in transfected cells; host or cells: HEK-293/EBNA (baculovirus transduction, NaBu induction); details: HEK293, 1 μM A-61603 or 1 mM Iso
Method: HEK293 cells were transiently co-transfected with FLAG-tagged α1A – AR and one of the following GFP-tagged proteins: Rab5 (Rab5 Q79L) variant, Rab11 (Rab11 S25N) variant, β-arrestin-1 or β-arrestin-2. Rab5 and Rab11 were kindly provided by Dr. Marino Zerial (Max Planck Institute of Molecular Cell Biology and Genetics, Dresden, Germany). […] After treatment, cells were fixed with freshly prepared 3.7% paraformaldehyde in PBS for 15 min at room temperature. Subsequently, cells were permeabilized with 0.1% Triton X-100 (Sigma-Aldrich) in PBS for 5 min, followed by nonspecific binding site blocking with 3% normal serum (Santa Cruz Biotechnology) in PBS for 1 h. Incubation with Alexa Fluor-568 conjugated anti-FLAG antibodies in blocking solution was done as directed by the manufacturer. Confocal microscopy was performed using a Zeiss LSM 510 META laser scanning microscope (Carl Zeiss, Inc., Thornwood, NY) equipped with a 60X objective, using the following laser wavelengths: excitation at 488 nm and emission at 505–530 nm; excitation at 543 nm and emission at 560–615 nm.
HEK293 cells were co-transfected with FLAG-tagged α1A – AR and GFP- tagged β-arrestin-1 (left panels) or β-arrestin-2 (right panels). […] Cells were then fixed, permeabilized, stained with Alexa Fluor-568 conjugated anti-FLAG antibodies, and analyzed employing confocal microscopy.

α1A-AR [5] = biological target: T1, α1A-AR; assay: LC-MS detection of IP1, IP2 and IP3 in α1A-AR transduced HEK-293/EBNA cells; format: cell-based; parameters: expressed in transfected cells; host or cells: HEK-293/EBNA (baculovirus transduction, NaBu induction); details: Iso up to 10 mM
Method: as §1, with “Virally transduced HEK-293/EBNA cells were resuspended in growth medium and seeded in poly-D-lysine coated 96-well black plates at a density of 100,000 cells/0.1 mL per well, Cells were allowed to attach for 2 hours at 37°C in a humidified atmosphere of 95% air and 5% CO2. After” for “After”

β2-AR [6] = biological target: T2, β2-AR (Homo sapiens, UniProt P07550); assay: cAMP accumulation in untransduced HEK-293/EBNA cells; format: cell-based; details: HEK293/EBNA
T2 construct: HEK-293/EBNA cells are known to express β2-AR endogenously; endogenous in cells; host or cells: HEK-293/EBNA (untransduced or negative-control transduced)
T2 sequence (P07550 whole entry): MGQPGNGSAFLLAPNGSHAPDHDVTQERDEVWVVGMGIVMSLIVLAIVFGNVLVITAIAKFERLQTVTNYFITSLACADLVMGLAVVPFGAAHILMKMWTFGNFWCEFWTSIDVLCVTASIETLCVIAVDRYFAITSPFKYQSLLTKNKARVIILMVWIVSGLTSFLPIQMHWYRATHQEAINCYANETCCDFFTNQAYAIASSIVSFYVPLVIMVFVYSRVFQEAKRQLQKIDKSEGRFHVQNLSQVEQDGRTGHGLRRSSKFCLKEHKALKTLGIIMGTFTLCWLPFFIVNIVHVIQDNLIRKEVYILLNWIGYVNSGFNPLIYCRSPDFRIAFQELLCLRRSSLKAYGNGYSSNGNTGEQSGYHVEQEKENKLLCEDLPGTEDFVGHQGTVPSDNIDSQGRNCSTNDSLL

HEK293/EBNA cells = assay: IP accumulation (IP-One HTRF) in untransduced HEK-293/EBNA cells; format: cell-based
β2-AR [7] = biological target: T2, β2-AR; details: HEK293/EBNA; read-out: EC50 Ca2+; cited from earlier work
β2-AR [8] = biological target: T2, β2-AR; details: HEK293/EBNA; [125I-CYP] used as radioligand (footnote 1a); cited from earlier work
β2-AR [9] = biological target: T2, β2-AR; assay: MAPK activation (AlphaScreen SureFire p-ERK) in untransduced HEK-293/EBNA cells; format: cell-based; details: HEK293/EBNA

effect of EGFR inhibition on Iso induced α1A-AR stimulation of ERK1/2 (α1A-AR [1]; data not shown): not affected
SMILES: COc1cc2ncnc(Nc3cccc(Cl)c3)c2cc1OC [AG1478]

effect of antagonist pretreatment on Iso Ca2+ response (α1A-AR [2]): insensitive
SMILES: CC(C)NCC(O)COc1cccc2ccccc12 (stereo not drawn) [propranolol]

SMILES: CS(=O)(=O)Nc1c(O)ccc2c1CCCC2C1=NCCN1 (stereo not drawn) [A-61603]
cellular concentration of inositol phosphates IP1, IP2 and IP3 (α1A-AR [3]): concentration-dependent increases
translocation of β-arrestin-1 / β-arrestin-2 (α1A-AR [4]): did not induce significant translocation
cellular levels of inositol phosphates IP1, IP2 and IP3 (α1A-AR [5]): concentration-dependent increases
EC50 cAMP (β2-AR [6]): BQL
EC50 IP (HEK293/EBNA cells; HEK293/EBNA untransduced): BQL
IP formation (HEK293/EBNA cells; untransduced cells, data not shown): not detectable
EC50 (β2-AR [7]): 0.003 µM
Ki (β2-AR [8]): 24 µM
EC50 p-ERK (β2-AR [9]): BQL
times more potent at inducing p-ERK formation than Ca2+ mobilization (α1A-AR [1]; α1A-AR transduced HEK-293/EBNA): ~4 times
